One assay deals with AXL (Homo sapiens (Human), UniProt P30530). Kind of assay: KINOMEscan competition binding assay. The protocol: (§1) The experiment was performed according to the standard kinase activity determination protocol by Eurofins DiscoverX Corporation (11180 Roselle St. Suite D, San Diego, CA, USA, www.discoverX.com). Specifically, the experiment was conducted using the KINOMEscan™ screening platform, which adopts an active site-directed competition binding assay to quantitatively measure the interaction between test compounds and more than hundreds of human kinases and disease-related mutants. The working principle of the screening platform and kinase assay methods are well known in the art, for example, see www.discoverX.com.

The target in a further assay is LOK (Homo sapiens (Human), UniProt O94804). Kind of assay: KINOMEscan competition binding assay. The protocol: as §1
A further assay deals with TRKB (Homo sapiens (Human), UniProt Q16620). Kind of assay: KINOMEscan competition binding assay. The protocol:
as §1

The next assay concerns the target CSF1R (Homo sapiens (Human), UniProt P07333). Kind of assay: KINOMEscan competition binding assay. The protocol:
as §1

Another assay deals with LCK (Homo sapiens (Human), UniProt P06239). Kind of assay: KINOMEscan competition binding assay. The protocol:
as §1

The target of the next assay is MET (Homo sapiens (Human), UniProt P08581). The assay can be described thus: KINOMEscan competition binding assay. The protocol: as §1
For the next assay, the target named is CDK7 (Homo sapiens (Human), UniProt P50613). Kind of assay: KINOMEscan competition binding assay. The protocol: as §1
Another assay has as its target FLT3(K663Q) (Homo sapiens (Human), UniProt P36888, K663Q). Kind of assay: KINOMEscan competition binding assay. The protocol: as §1
The next assay has as its target RAF1 (Homo sapiens (Human), UniProt P04049). Kind of assay: KINOMEscan competition binding assay. The protocol:
as §1

The target in the next assay is KIT(V559D, T670I) (Homo sapiens (Human), UniProt P10721, T670I/V559D). Kind of assay: KINOMEscan competition binding assay. The protocol:
as §1

For another assay, the target named is MERTK (Homo sapiens (Human), UniProt Q12866). Kind of assay: KINOMEscan competition binding assay. The protocol:
as §1

For the next assay, the target named is KIT(V559D) (Homo sapiens (Human), UniProt P10721, V559D). Kind of assay: KINOMEscan competition binding assay. The protocol: as §1
The target in the next assay is BLK (Homo sapiens (Human), UniProt P51451). Kind of assay: KINOMEscan competition binding assay. The protocol: as §1
The next assay deals with RET (Homo sapiens (Human), UniProt P07949). The assay can be described thus: KINOMEscan competition binding assay. The protocol:
as §1

The target in a further assay is MST1R (Homo sapiens (Human), UniProt Q04912). The assay can be described thus: KINOMEscan competition binding assay. The protocol: as §1
In a further assay the target is FLT3(D835V) (Homo sapiens (Human), UniProt P36888, D835V). The assay can be described thus: KINOMEscan competition binding assay. The protocol:
as §1

A further assay concerns the target PDGFRB (Homo sapiens (Human), UniProt P09619). The assay can be described thus: KINOMEscan competition binding assay. The protocol: as §1
A further assay concerns the target EPHB6 (Homo sapiens (Human), UniProt O15197). Kind of assay: KINOMEscan competition binding assay. The protocol:
as §1

In another assay the target is MET(Y1235D) (Homo sapiens (Human), UniProt P08581, Y1235D). The assay can be described thus: KINOMEscan competition binding assay. The protocol: as §1
A further assay addresses TIE1 (Homo sapiens (Human), UniProt P35590). The assay can be described thus: KINOMEscan competition binding assay. The protocol: as §1
For another assay, the target named is MKNK2 (Homo sapiens (Human), UniProt Q9HBH9). Kind of assay: KINOMEscan competition binding assay. The protocol: as §1
The target in a further assay is ROS1 (Homo sapiens (Human), UniProt P08922). Kind of assay: KINOMEscan competition binding assay. The protocol: as §1
For another assay, the target named is MUSK (Homo sapiens (Human), UniProt O15146). Kind of assay: KINOMEscan competition binding assay. The protocol: as §1
For another assay, the target named is IKK-alpha (Homo sapiens (Human), UniProt O15111). Kind of assay: KINOMEscan competition binding assay. The protocol: as §1
A further assay addresses IKK-beta (Homo sapiens (Human), UniProt O14920). The assay can be described thus: KINOMEscan competition binding assay. The protocol: as §1
The target of another assay is FLT3(N841I) (Homo sapiens (Human), UniProt P36888, N841I). Kind of assay: KINOMEscan competition binding assay. The protocol:
as §1

Another assay concerns the target FLT3 (Homo sapiens (Human), UniProt P36888). The assay can be described thus: KINOMEscan competition binding assay. The protocol: as §1
A further assay concerns the target TIE2 (Homo sapiens (Human), UniProt Q02763). Kind of assay: KINOMEscan competition binding assay. The protocol:
as §1

In another assay the target is P450 3A4 (Homo sapiens (Human), UniProt P08684). Kind of assay: Cytochrome P450 inhibition in human liver microsomes. It counts as in vitro ADME. (Liver microsomes are a subcellular fraction often used to study metabolism.)
Assay [1] addresses kinases listed in Table 10. The assay can be described thus: KINOMEscan kinase panel (kinase profile). In kind it is binding, human. The protocol:
as §1
The experiment was performed according to the standard kinase activity determination protocol by Eurofins DiscoverX Corporation (11180 Roselle St. Suite D, San Diego, CA USA, www.discoverX.com).

Assay [2] deals with TRK Fusion-Positive Cancers. The conditions noted are these: cited from earlier work.

SMILES strings stand for the structures. pIC50: −log10 of the molar value. A value given as a limit tells only on which side of the number the result lay.

The source of these data is patent publication US11952364B2, “TRK inhibitors useful as anticancer drugs” (TYLIGAND BIOSCIENCE (SHANGHAI) LIMITED, priority 2018, dated 2024).

Usually inhibition stands for the share of the control response that was lost under treatment. Read a high inhibition as a strong effect. By pIC50 is commonly meant the IC50 on a negative log10 scale, so that one unit is a factor of ten.

Chain of LOK (O94804 whole entry): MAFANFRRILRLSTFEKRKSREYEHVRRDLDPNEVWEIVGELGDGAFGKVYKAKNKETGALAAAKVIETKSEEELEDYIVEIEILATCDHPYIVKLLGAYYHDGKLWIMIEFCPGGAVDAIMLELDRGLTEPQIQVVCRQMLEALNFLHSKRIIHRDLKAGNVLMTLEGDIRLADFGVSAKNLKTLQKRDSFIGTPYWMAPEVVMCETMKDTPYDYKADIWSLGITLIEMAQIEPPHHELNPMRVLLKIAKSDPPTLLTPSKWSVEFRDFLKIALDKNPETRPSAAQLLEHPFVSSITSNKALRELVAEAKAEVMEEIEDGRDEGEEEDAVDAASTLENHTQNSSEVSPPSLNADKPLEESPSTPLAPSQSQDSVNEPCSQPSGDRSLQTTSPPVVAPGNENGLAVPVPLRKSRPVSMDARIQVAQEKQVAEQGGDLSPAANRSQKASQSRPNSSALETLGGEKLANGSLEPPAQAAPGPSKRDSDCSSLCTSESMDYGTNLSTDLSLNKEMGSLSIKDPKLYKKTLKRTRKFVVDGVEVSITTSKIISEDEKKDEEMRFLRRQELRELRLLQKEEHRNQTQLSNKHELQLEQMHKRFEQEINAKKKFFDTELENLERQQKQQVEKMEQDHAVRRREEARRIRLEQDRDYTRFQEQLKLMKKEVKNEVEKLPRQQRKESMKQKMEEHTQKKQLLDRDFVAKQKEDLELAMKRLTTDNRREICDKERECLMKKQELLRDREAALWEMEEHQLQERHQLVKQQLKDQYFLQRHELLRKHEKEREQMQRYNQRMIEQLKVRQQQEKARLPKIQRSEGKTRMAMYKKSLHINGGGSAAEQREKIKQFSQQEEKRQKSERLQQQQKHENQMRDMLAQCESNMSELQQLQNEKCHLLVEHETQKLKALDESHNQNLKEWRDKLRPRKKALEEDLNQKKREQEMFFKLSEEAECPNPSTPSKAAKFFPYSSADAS
Chain of TRKB (Q16620 32-822): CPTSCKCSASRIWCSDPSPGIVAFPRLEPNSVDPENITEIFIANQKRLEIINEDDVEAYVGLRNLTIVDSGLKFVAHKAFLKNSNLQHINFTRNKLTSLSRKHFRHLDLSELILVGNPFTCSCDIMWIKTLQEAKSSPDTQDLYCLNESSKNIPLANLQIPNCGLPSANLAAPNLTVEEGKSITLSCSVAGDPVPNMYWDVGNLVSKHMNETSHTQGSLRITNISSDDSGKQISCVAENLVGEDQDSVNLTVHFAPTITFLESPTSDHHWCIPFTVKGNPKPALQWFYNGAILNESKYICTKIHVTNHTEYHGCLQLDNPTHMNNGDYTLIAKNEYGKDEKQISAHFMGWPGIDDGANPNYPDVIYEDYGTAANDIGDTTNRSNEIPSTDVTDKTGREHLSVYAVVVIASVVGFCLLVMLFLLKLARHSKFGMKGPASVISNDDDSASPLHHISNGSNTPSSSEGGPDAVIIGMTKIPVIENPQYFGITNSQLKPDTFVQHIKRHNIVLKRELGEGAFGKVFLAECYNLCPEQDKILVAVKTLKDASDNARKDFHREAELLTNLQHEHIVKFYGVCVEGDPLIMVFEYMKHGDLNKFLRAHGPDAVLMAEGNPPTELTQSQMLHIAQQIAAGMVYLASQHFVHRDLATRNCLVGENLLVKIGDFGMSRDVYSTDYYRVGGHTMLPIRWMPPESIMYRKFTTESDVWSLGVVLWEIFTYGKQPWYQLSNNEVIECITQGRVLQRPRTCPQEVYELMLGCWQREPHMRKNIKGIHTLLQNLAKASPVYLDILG
Chain of CDK7 (P50613 whole entry): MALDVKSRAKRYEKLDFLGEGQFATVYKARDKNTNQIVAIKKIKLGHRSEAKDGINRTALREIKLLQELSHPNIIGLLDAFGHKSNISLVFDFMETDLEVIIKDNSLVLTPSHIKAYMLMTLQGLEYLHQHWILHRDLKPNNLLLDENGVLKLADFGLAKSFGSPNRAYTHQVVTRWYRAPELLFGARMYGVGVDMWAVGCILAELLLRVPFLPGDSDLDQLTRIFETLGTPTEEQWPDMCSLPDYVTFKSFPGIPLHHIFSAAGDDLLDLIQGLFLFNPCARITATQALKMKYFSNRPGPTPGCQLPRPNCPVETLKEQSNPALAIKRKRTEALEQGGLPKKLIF
Chain of MST1R (Q04912 25-1400): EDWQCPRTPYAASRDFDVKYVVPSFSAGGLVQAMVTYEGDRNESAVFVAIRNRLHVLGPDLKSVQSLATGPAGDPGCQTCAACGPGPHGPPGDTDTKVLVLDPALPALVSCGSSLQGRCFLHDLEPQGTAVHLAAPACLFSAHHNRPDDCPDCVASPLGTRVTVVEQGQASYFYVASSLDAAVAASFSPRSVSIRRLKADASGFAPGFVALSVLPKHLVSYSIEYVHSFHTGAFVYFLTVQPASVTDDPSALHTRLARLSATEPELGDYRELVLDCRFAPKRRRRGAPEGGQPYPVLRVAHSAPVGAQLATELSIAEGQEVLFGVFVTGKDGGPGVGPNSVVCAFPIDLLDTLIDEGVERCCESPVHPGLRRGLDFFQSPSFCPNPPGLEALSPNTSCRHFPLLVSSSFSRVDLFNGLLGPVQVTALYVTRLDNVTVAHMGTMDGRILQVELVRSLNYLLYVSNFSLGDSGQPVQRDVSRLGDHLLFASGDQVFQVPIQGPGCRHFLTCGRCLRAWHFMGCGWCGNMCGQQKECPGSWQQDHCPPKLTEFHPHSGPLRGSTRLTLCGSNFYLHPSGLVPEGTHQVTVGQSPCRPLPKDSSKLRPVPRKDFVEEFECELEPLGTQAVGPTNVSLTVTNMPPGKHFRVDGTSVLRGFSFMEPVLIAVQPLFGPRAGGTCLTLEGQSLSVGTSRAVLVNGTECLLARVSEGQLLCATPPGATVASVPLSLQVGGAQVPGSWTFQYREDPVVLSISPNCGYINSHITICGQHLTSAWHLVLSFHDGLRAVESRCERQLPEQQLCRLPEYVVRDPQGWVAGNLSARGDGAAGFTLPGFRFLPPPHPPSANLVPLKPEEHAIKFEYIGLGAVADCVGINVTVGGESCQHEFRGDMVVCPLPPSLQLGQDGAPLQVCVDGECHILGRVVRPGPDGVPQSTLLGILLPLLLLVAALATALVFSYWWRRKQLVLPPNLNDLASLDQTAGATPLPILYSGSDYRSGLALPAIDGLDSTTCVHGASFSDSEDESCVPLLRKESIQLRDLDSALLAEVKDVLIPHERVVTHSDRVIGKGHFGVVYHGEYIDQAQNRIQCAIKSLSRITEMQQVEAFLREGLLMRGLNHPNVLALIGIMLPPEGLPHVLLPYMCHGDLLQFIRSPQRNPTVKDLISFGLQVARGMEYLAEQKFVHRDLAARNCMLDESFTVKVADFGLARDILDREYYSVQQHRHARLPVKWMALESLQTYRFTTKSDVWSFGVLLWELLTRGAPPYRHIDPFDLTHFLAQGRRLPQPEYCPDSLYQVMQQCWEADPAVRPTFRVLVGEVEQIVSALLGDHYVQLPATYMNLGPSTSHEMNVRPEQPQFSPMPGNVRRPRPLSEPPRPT
Chain of LCK (P06239 whole entry): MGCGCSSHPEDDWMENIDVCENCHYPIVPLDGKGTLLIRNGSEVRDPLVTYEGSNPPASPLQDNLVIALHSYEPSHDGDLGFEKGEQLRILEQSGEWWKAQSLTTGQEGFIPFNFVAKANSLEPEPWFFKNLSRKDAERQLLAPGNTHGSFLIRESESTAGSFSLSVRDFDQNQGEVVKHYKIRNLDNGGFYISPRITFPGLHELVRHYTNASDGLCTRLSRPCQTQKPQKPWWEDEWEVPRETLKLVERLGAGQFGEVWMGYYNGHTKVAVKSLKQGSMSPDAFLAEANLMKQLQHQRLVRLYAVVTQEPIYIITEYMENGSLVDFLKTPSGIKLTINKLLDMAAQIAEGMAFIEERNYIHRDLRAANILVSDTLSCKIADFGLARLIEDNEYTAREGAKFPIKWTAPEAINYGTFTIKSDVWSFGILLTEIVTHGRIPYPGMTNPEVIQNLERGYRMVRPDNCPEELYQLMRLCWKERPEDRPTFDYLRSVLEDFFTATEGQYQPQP
Chain of MERTK (Q12866 21-999): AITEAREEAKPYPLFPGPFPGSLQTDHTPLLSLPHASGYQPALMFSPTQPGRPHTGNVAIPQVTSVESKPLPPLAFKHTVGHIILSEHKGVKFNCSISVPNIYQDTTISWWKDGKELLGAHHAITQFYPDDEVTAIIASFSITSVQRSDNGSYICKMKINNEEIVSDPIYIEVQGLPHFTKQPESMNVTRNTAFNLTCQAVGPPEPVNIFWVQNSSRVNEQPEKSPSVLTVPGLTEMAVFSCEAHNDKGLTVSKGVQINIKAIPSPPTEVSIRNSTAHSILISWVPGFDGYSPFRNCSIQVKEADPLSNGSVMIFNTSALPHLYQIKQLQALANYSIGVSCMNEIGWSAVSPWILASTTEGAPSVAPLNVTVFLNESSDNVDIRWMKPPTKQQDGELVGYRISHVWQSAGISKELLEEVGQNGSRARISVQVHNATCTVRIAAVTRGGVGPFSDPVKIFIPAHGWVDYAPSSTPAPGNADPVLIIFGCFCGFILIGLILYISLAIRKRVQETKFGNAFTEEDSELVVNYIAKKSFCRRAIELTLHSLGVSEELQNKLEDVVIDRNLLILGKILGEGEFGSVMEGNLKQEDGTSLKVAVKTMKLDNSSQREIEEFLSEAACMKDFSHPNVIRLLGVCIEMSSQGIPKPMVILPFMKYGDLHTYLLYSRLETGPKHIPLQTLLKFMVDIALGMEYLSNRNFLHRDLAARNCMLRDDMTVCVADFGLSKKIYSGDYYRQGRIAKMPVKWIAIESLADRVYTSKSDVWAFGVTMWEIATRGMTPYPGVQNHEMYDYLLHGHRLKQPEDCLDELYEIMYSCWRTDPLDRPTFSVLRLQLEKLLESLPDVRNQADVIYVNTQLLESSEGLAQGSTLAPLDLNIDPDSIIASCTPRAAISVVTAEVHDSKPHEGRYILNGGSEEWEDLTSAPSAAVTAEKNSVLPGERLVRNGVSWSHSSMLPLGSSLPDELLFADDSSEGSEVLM
Experimental for P450 3A4: The test compounds were evaluated by detecting the metabolism of human liver microsomes for the substrates of different subtypes of Cyp450. The liver microsomes (Sekisui XenoTech, LLC., human liver microsomes, cat. #H0610) were slowly melted on ice, and 0.482 mL of the liver microsome solution (20 mg/mL) was added to 30 mL of 100 mM potassium phosphate solution to prepare a liver microsome working solution with a concentration of 0.316 mg/mL. The test compound and specific inhibitors of different Cyp450 subtypes (as a control) were prepared into 10 mM DMSO solutions, and then 20 μL of the 10 mM DMSO compound solution was added to 180 μL of acetonitrile to obtain a 1 mM compound solution. 2 μL of such 1 mM test compound or inhibitor solution was added to 150 μL of 0.316 mg/mL liver microsome working solution to obtain a 13.16 μM compound working solution. 45.3 mg of NADPH (SIGMA, cat. #V900362) was weighted and added into 13.59 mL of deionized water to prepare a 4 mM NADPH aqueous solution. 0.2 mL of 2 mg/mL internal standard stock solution (dexamethasone in acetonitrile) was added to 1000 mL of acetonitrile (SIGMA, cat. #271004) to prepare a reaction stop solution and stored at 4° C. […] The single point IC50 values were calculated according to the following formula. […]

With `COc1ccc(C(=O)Nc2ccc(Oc3cc4cnn(C)c4cc3-c3cn[nH]c3)c(F)c2)c(=O)n1-c1ccc(F)cc1` [Example 12, N-(3-fluoro-4-(1-methyl-6-(1H-pyrazol-4-yl)-1H-indazol-5-yloxy)phenyl)-1-(4-fluorophenyl)-6-methoxy-2-oxo-1,2-dihydropyridine-3-carboxamide], the inhibition at 2 µM at AXL was 100%; at LOK, 100%; on TRKB, 94%; on CSF1R it was 100%; on LCK it was 97%; on MET, 93%. The inhibition at 2 µM is 96% on CDK7; 93% at FLT3(K663Q); 92% at RAF1; 99% on KIT(V559D, T670I); 97% at MERTK; 100% at KIT(V559D). The inhibition at 2 µM on BLK is 95%; at RET, 97%; on MST1R, 98%; on FLT3(D835V) it was 93%; on PDGFRB it was 98%; at EPHB6, 95%. Besides, the inhibition at 2 µM worked out at 99% on MET(Y1235D); 99% at TIE1; 100% on MKNK2; 97% at ROS1; 98% at MUSK; 97% at IKK-alpha. For the same compound, the inhibition at 2 µM on IKK-beta is 97%; at FLT3(N841I) it was 100%; at FLT3, 99%; at TIE2, 99%. The negative-log IC50 (pIC50) on P450 3A4 was < 5.00. For the same compound, the “kinase activity profile compared with Merestinib” value in assay [1] (2 μM, FIG. 2, kinases with a difference of inhibition rate >20%) is “significantly different trend in the kinase activity profile”. Moreover, the “inhibitory activity on the kinases listed in Table 10” value in assay [1] (concentration of 2 μM) is recorded as > 90%.
For `O=C(Nc1cnn2ccc(N3CCC[C@@H]3c3cc(F)ccc3F)nc12)N1CC[C@H](O)C1` [LOXO-101, Larotrectinib, reference compound], in [2] (after 1 year of treatment), the “patients had no disease progression” value is given as 55% and the “patients still responded to treatment” value is 71%. The “overall patient response rate (ORR)” value in [2] (patients, more than ten tumor types) is 75%. In assay [2] (patients), the complete response was 13% and the partial response is given as 62%.
